The results in this text go back to ChEMBL document CHEMBL1130922, “Solid phase synthesis of oligomannopeptoids that mimic the concanavalin A-binding trimannoside” (Bioorg Med Chem Lett, 1998).

Each structure is given as a SMILES string.

A short description of the test: Dissociation constant for binding to concanavalin A (ConA) was determined by fluorescence anisotropy assay. Background: Fluorescence polarisation rises when a labelled molecule tumbles more slowly, as on binding a larger partner.

Compound `CO[C@H]1[C@@H](OCCN(CC(N)=O)S(=O)(=O)c2cccc3c(N(C)C)cccc23)O[C@@H](CO)[C@@H](O)[C@@H]1O` came in with a Kd of 122 uM l-1.

The compound `CN(C)c1cccc2c(S(=O)(=O)N(CCO[C@H]3O[C@@H](CO)[C@@H](O)[C@H](O)[C@H]3O)CC(=O)N(CCO[C@H]3O[C@@H](CO)[C@@H](O)[C@H](O)[C@H]3O)CC(=O)N(CCO[C@H]3O[C@@H](CO)[C@@H](O)[C@H](O)[C@H]3O)CC(=O)N(CCO[C@H]3O[C@@H](CO)[C@@H](O)[C@H](O)[C@H]3O)CC(=O)N(CCO[C@H]3O[C@@H](CO)[C@@H](O)[C@H](O)[C@H]3O)CC(=O)N(CCO[C@H]3O[C@@H](CO)[C@@H](O)[C@H](O)[C@H]3O)CC(N)=O)cccc12` displayed a Kd of 12 uM l-1.

`CN(C)c1cccc2c(S(=O)(=O)N(CCO[C@H]3O[C@@H](CO)[C@@H](O[C@H]4O[C@@H](CO)[C@@H](O[C@H]5O[C@@H](CO)[C@@H](O)[C@H](O)[C@H]5O)[C@H](O)[C@H]4O)[C@H](O)[C@H]3O)CC(N)=O)cccc12` yielded a Kd of 2 uM l-1.

For `CN(C)c1cccc2c(S(=O)(=O)N(CCO[C@H]3O[C@@H](CO)[C@@H](O)[C@H](O)[C@H]3O)CC(N)=O)cccc12`, the Kd was 31 uM l-1.

For the compound `CN(C)c1cccc2c(S(=O)(=O)N(CCO[C@H]3O[C@@H](CO)[C@@H](O)[C@H](O)[C@H]3O)CC(=O)N(CCO[C@H]3O[C@@H](CO)[C@@H](O)[C@H](O)[C@H]3O)CC(N)=O)cccc12`, the Kd amounted to 18 uM l-1.

Turning to `CN(C)c1cccc2c(S(=O)(=O)N(CCO[C@H]3O[C@@H](CO)[C@@H](O)[C@H](O)[C@H]3O)CC(=O)N(CCO[C@H]3O[C@@H](CO)[C@@H](O)[C@H](O)[C@H]3O)CC(=O)N(CCO[C@H]3O[C@@H](CO)[C@@H](O)[C@H](O)[C@H]3O)CC(=O)N(CCO[C@H]3O[C@@H](CO)[C@@H](O)[C@H](O)[C@H]3O)CC(N)=O)cccc12`, the Kd is 12 uM l-1.

Take `CN(C)c1cccc2c(S(=O)(=O)N(CCO[C@H]3O[C@@H](CO)[C@@H](O)[C@H](O)[C@H]3O)CC(=O)N(CCO[C@H]3O[C@@H](CO)[C@@H](O)[C@H](O)[C@H]3O)CC(=O)N(CCO[C@H]3O[C@@H](CO)[C@@H](O)[C@H](O)[C@H]3O)CC(=O)N(CCO[C@H]3O[C@@H](CO)[C@@H](O)[C@H](O)[C@H]3O)CC(=O)N(CCO[C@H]3O[C@@H](CO)[C@@H](O)[C@H](O)[C@H]3O)CC(N)=O)cccc12`: the Kd came out at 14 uM l-1.

With `CN(C)c1cccc2c(S(=O)(=O)N(CCO[C@H]3O[C@@H](CO)[C@@H](O)[C@H](O)[C@H]3O)CC(=O)N(CCO[C@H]3O[C@@H](CO)[C@@H](O)[C@H](O)[C@H]3O)CC(=O)N(CCO[C@H]3O[C@@H](CO)[C@@H](O)[C@H](O)[C@H]3O)CC(N)=O)cccc12`, the Kd came out at 9 uM l-1.
